Drawing on patent US10766869B2, “Triazoles for the treatment of demyelinating dieases” (Vertex Pharmaceuticals Incorporated, priority 2015, dated 2020), this text covers fold induction for 27 compounds.

The subject of the assay is primary rat mixed cortical cells. Kind of assay: In vitro myelination assay (MBP positive myelin strands, fold myelin pixels above background). The conditions noted are these: Rattus norvegicus; for fold induction at 1 µM: 1.0 μM compound; for fold induction at 10 µM: 10.0 μM compound. The assay is classed as cell-based. The procedure, abridged: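 Fourteen-day treatment of primary P1 rat mixed cortical cultures, re-dosed at days 6 and 10, at 1.0 μM and 10.0 μM. MBP immunofluorescence was imaged at 10× and myelin strands quantified by software, normalised to untreated wells as fold above background.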

Setting [1] is: relative to baseline of no added compound, read-out: Fold myelin pixels above background.
Setting [2] is: read-out: Fold myelin pixels above background relative to baseline of no added compound.
The mark [3] stands for this setting: relative to baseline of no added compound, read-out: Fold myelin pixels above background, 1.0 μM.
[4] abbreviates: relative to baseline of no added compound, read-out: Fold myelin pixels above background, 10.0 μM.

Where two headings read alike, the source gives them in different places.

For `COc1cc(Nc2ncn(-c3cc(F)cc(F)c3)n2)nc(N2CCN(C3COC3)CC2)c1` [Compound 599, N-[1-(3,5-difluorophenyl)-1,2,4-triazol-3-yl]-4-methoxy-6-[4-(oxetan-3-yl)piperazin-1-yl]pyridin-2-amine], under setting [1], the fold induction at 1 µM lay within 10 to 100 and the fold induction at 10 µM was in the range of 10 to 100.
`[2H]C1([2H])N(c2cc(C)cc(Nc3ncn(-c4cc(F)cc(F)c4)n3)c2)C([2H])([2H])C([2H])([2H])N(C2CCC2)C1([2H])[2H]` [Compound 994, N-[3-(4-cyclobutyl-2,2,3,3,5,5,6,6-octadeuterio-piperazin-1-yl)-5-methyl-phenyl]-1-(3,5-difluorophenyl)-1,2,4-triazol-3-amine]: under setting [2], the fold induction at 1 µM lay within 1 to 10 and the fold induction at 10 µM fell in the range of 1 to 10.
Take `COc1cc(Nc2ncn(-c3cccc(C(F)(F)F)c3)n2)nc(N2CCN(C3COC3)CC2)c1` [Compound 610, 4-methoxy-6-[4-(oxetan-3-yl)piperazin-1-yl]-N-[1-[3-(trifluoromethyl)phenyl]-1,2,4-triazol-3-yl]pyridin-2-amine]: under setting [1], the fold induction at 1 µM fell in the range of 1 to 10 and the fold induction at 10 µM lay within 1 to 10.
As for `Cc1cc(Nc2ncn(-c3cc(F)cc(F)c3)n2)cc(NC2CC2)c1` [Compound 448, N1-cyclopropyl-N3-[1-(3,5-difluorophenyl)-1,2,4-triazol-3-yl]-5-methyl-benzene-1,3-diamine], under setting [1], the fold induction at 1 µM lay within 100 to 1000 and the fold induction at 10 µM was 1 to 10.
Take `Cc1cc(Nc2ncn(-c3ccccc3)n2)cc(N2CCC(C#N)CC2)c1` [Compound 142, 1-[3-methyl-5-[(1-phenyl-1,2,4-triazol-3-yl)amino]phenyl]piperidine-4-carbonitrile]: under setting [3], the fold induction at 1 µM was 1000 to 10000. The fold induction at 10 µM under setting [4] lay within 100 to 1000.
With `Cc1cc(Nc2ncn(-c3cc(F)cc(F)c3)n2)cc(N2CC(C3COC3)C2)c1` [Compound 506, 1-(3,5-difluorophenyl)-N-[3-methyl-5-[3-(oxetan-3-yl)azetidin-1-yl]phenyl]-1,2,4-triazol-3-amine], under setting [1], the fold induction at 1 µM was 100 to 1000 and the fold induction at 10 µM lay in the range of 1 to 10.
As for `COCCN1CCCC(Nc2cc(C)cc(Nc3ncn(-c4cc(F)cc(F)c4)n3)c2)C1` (stereo not drawn) [Compound 1050, N3-[1-(3,5-difluorophenyl)-1,2,4-triazol-3-yl]-N1-[1-(2-methoxyethyl)-3-piperidyl]-5-methyl-benzene-1,3-diamine], under setting [2], the fold induction at 1 µM fell in the range of 10 to 100 and the fold induction at 10 µM was not above 1.
For `Cc1cc(Nc2ncn(-c3cc(F)cc(F)c3)n2)cc(N2CCN(C(=O)C3CC3)CC2)c1` [Compound 458], under setting [1], the fold induction at 1 µM was 1000 to 10000 and the fold induction at 10 µM lay in the range of 100 to 1000.
`CC(=O)N1CCC(c2cc(C)cc(Nc3ncn(-c4ccccc4)n3)c2)C1` (stereo not drawn) [Compound 443, 1-[3-[3-methyl-5-[(1-phenyl-1,2,4-triazol-3-yl)amino]phenyl]pyrrolidin-1-yl]ethanone]: under setting [1], the fold induction at 1 µM was in the range of 1000 to 10000 and the fold induction at 10 µM was not above 1.
For `Cc1cc(Nc2ncn(-c3cc(F)cc(F)c3)n2)cc(N2CCN3CCOCC3C2)c1` (stereo not drawn) [Compound 566, N-[3-(3,4,6,7,9,9a-hexahydro-1H-pyrazino[2,1-c][1,4]oxazin-8-yl)-5-methyl-phenyl]-1-(3,5-difluorophenyl)-1,2,4-triazol-3-amine], under setting [1], the fold induction at 1 µM fell in the range of 100 to 1000 and the fold induction at 10 µM lay in the range of 10 to 100.
As for `Cc1cc(Nc2ncn(-c3ccccc3)n2)cc(N2C[C@@H]3C[C@H]2CN3C2CC2)c1` [Compound 292, N-[3-[(1S,4S)-2-cyclopropyl-2,5-diazabicyclo[2.2.1]heptan-5-yl]-5-methyl-phenyl]-1-phenyl-1,2,4-triazol-3-amine], the fold induction at 1 µM under setting [3] lay in the range of 100 to 1000. Further, under setting [4], the fold induction at 10 µM lay within 10 to 100.
For `Cc1cc(Nc2ncn(-c3ccccc3)n2)cc(C2CCN(C3COC3)CC2)c1` [Compound 71, N-[3-methyl-5-[1-(oxetan-3-yl)-4-piperidyl]phenyl]-1-phenyl-1,2,4-triazol-3-amine], under setting [3], the fold induction at 1 µM is 1000 to 10000. Besides, the fold induction at 10 µM under setting [4] is not above 1.
As for `Cc1cc(Nc2ncn(-c3cc(F)cc(F)c3)n2)cc(OCCn2cccn2)c1` [Compound 832, 1-(3,5-difluorophenyl)-N-[3-methyl-5-(2-pyrazol-1-ylethoxy)phenyl]-1,2,4-triazol-3-amine], under setting [2], the fold induction at 1 µM fell in the range of 10 to 100 and the fold induction at 10 µM lay in the range of 10 to 100.
In the case of `Cc1cc(Nc2ncn(-c3cccc(F)c3)n2)nc(N2CC(N3CCOCC3)C2)c1` [Compound 538, N-[1-(3-fluorophenyl)-1,2,4-triazol-3-yl]-4-methyl-6-(3-morpholinoazetidin-1-yl)pyridin-2-amine], under setting [1], the fold induction at 1 µM lay within 1 to 10 and the fold induction at 10 µM was in the range of 1 to 10.
Consider `Cc1cc(Nc2ncn(-c3ccc(F)c(F)c3)n2)cc(N[C@H]2C[C@H](N3CCOCC3)C2)c1` (single isomer, unassigned) [Compound 792, N1-[1-(3,4-difluorophenyl)-1,2,4-triazol-3-yl]-5-methyl-N3-(3-morpholinocyclobutyl)benzene-1,3-diamine], for which, under setting [2], the fold induction at 1 µM is 10 to 100 and the fold induction at 10 µM was not above 1.
As for `CCc1cc(Nc2ncn(-c3cccc(OC)c3)n2)cc(N2CCN(C3COC3)CC2)c1` [Compound 432, N-[3-ethyl-5-[4-(oxetan-3-yl)piperazin-1-yl]phenyl]-1-(3-methoxyphenyl)-1,2,4-triazol-3-amine], under setting [1], the fold induction at 1 µM fell in the range of 100 to 1000 and the fold induction at 10 µM lay in the range of 1 to 10.
As to `COc1ccc(-n2cnc(Nc3cc(Cl)nc(N4CCOCC4)c3)n2)cc1OC` [Compound 345, 2-chloro-N-[1-(3,4-dimethoxyphenyl)-1,2,4-triazol-3-yl]-6-morpholino-pyridin-4-amine], the fold induction at 1 µM under setting [3] was in the range of 10 to 100. Further, the fold induction at 10 µM under setting [4] fell in the range of 1 to 10.
Take `Cc1cc(Nc2ncn(-c3cc(F)cc(F)c3)n2)nc(N2CCN(C3(C)COC3)CC2)c1` [Compound 580, N-[1-(3,5-difluorophenyl)-1,2,4-triazol-3-yl]-4-methyl-6-[4-(3-methyloxetan-3-yl)piperazin-1-yl]pyridin-2-amine]: under setting [1], the fold induction at 1 µM is not above 1 and the fold induction at 10 µM lay in the range of 1 to 10.
As to `Cc1cc(Nc2ncn(-c3cc(F)cc(F)c3)n2)cc(C2=CCN(C3COC3)CC2)c1` [Compound 61, 1-(3,5-difluorophenyl)-N-[3-methyl-5-[1-(oxetan-3-yl)-3,6-dihydro-2H-pyridin-4-yl]phenyl]-1,2,4-triazol-3-amine], the fold induction at 1 µM under setting [3] lay within 1000 to 10000. Also, the fold induction at 10 µM under setting [4] was not above 1.
Taken in the same sequence, the figures for `Cc1cc(Nc2ncn(-c3cc(F)cc(F)c3)n2)cc(N2CCN(C3CSC3)CC2)c1` [Compound 95, 1-(3,5-difluorophenyl)-N-[3-methyl-5-[4-(thietan-3-yl)piperazin-1-yl]phenyl]-1,2,4-triazol-3-amine] were 10 to 100 and not above 1.
Take `Cc1cc(Nc2ncn(-c3cc(F)cc(F)c3)n2)cc(N2CCC(OC(C)C)CC2)c1` [Compound 1019, 1-(3,5-difluorophenyl)-N-[3-(4-isopropoxy-1-piperidyl)-5-methyl-phenyl]-1,2,4-triazol-3-amine]: under setting [2], the fold induction at 1 µM lay in the range of 1 to 10 and the fold induction at 10 µM was in the range of 10 to 100.
On to `Cc1cc(Nc2ncn(-c3cncc(F)c3)n2)cc(C2COC2)c1` [Compound 447, 1-(5-fluoro-3-pyridyl)-N-[3-methyl-5-(oxetan-3-yl)phenyl]-1,2,4-triazol-3-amine], for which, under setting [1], the fold induction at 1 µM was in the range of 10 to 100 and the fold induction at 10 µM is 10 to 100.
As for `Cc1cc(Nc2ncn(-c3cc(F)cc(F)c3)n2)cc(C2(C)CN(C3COC3)CCO2)c1` (stereo not drawn) [Compound 708, 1-(3,5-difluorophenyl)-N-[3-methyl-5-[2-methyl-4-(oxetan-3-yl)morpholin-2-yl]phenyl]-1,2,4-triazol-3-amine], under setting [1], the fold induction at 1 µM lay in the range of 1 to 10 and the fold induction at 10 µM was not above 1.
Take `Cc1cc(Nc2ncn(-c3ccncn3)n2)cc(C2CCCN(C3COC3)C2)c1` (stereo not drawn) [Compound 180, N-[3-methyl-5-[1-(oxetan-3-yl)-3-piperidyl]phenyl]-1-pyrimidin-4-yl-1,2,4-triazol-3-amine]: the fold induction at 1 µM under setting [3] lay in the range of 100 to 1000. Besides, under setting [4], the fold induction at 10 µM is not above 1.
For the compound `Cc1cc(Nc2ncn(-c3cc(F)cc(F)c3)n2)cc(N2CCC(N(C)CCO)CC2)c1` [Compound 1015, 2-[[1-[3-[[1-(3,5-difluorophenyl)-1,2,4-triazol-3-yl]amino]-5-methyl-phenyl]-4-piperidyl]-methyl-amino]ethanol], under setting [2], the fold induction at 1 µM is not above 1 and the fold induction at 10 µM was not above 1.
In the case of `CC(=O)N(C)C1CCN(c2cc(C)cc(Nc3ncn(-c4cc(F)cc(F)c4)n3)c2)C1` (stereo not drawn) [Compound 500, N-[1-[3-[[1-(3,5-difluorophenyl)-1,2,4-triazol-3-yl]amino]-5-methyl-phenyl]pyrrolidin-3-yl]-N-methyl-acetamide], under setting [1], the fold induction at 1 µM fell in the range of 100 to 1000 and the fold induction at 10 µM fell in the range of 1 to 10.
On to `Cc1cc(Nc2ncn(-c3cc(F)cc(F)c3)n2)cc(N2CCN(C)CC2)c1` [Compound 37, 1-(3,5-difluorophenyl)-N-[3-methyl-5-(4-methylpiperazin-1-yl)phenyl]-1,2,4-triazol-3-amine], for which, under setting [3], the fold induction at 1 µM was in the range of 100 to 1000. Under setting [4], the fold induction at 10 µM was not above 1.
